From patent publication US8815849B2, “Hetero-bicyclic derivatives as HCV inhibitors” (Janssen R&D Ireland, priority 2010, dated 2014)
Read-outs that look alike come from different tables or passages of the source.

Experiments:
[1] = system: LLC-MDR1 monolayers; format: in vitro ADME; conditions: pig, LLC-PK1, 120 min
Protocol: Assay Description for the Measurement of Transepithelial Transport of Test Compounds Through LLC-MDR1 Monolayers
The integrity of the cellular monolayer was assessed in each incubation well through the inclusion of the fluorescent, low permeability marker compound, Fluorescein.
In detail, LLC-MDR1 cells (LLC-PK1 cells stably transduced with MDR1 in a trans-well system) were seeded on 24-well cell culture inserts (Millicell®-PCF, 0.4 μm, 13 mm Ø, 0.7 cm^2) at 400 000 cells/cm^2. Cell culture medium consists of Medium 199 supplemented with 10% Fetal Bovine Serum (FBS) and 100 U/mL Penicillin/streptomycin and was replaced the day after seeding and the day before the experiment. The transport experiment was performed 5 days after seeding. On the day of the experiment, solutions of the test compounds were applied to the apical side of the monolayers to assess transport in the AtoB direction,. The medium used in the assay was (OPTI-MEM (1×) (GIBCO) with 1 w/v % Bovine Serum Albumin. Inserts were incubated at 37° C. in a humidified incubator containing 5% CO2. Samples from the acceptor and donor compartments were collected after an incubation time of 120 min, to assess the permeability and to allow estimation of the test compound recovery during the experiment, respectively. Transport experiments were performed in triplicate. Absolute test compound concentrations were measured using LC-MS/MS and quantified via a calibration curve.

[2] = system: HCV replicon (Huh-Luc cells, NS3-NS5B regions of HCV type 1b); assay: HCV replicon assay (Huh-7 luc/neo, luciferase readout); format: cell-based; conditions: Huh-Luc replicon cells, three days incubation, luciferase activity, average if tested more than once, read-out: HCV-REP-HUH7LUC_EC50
Excerpt: The in vitro antiviral activity against HCV of the compounds of formula I can be tested in a cellular HCV replicon system based on Lohmann et al. (1999) Science 285:110-113, with the further modifications described by Krieger et al. (2001) Journal of Virology 75: 4614-4624 (incorporated herein by reference), which is further exemplified in the examples section. This model, while not a complete infection model for HCV, is widely accepted as the most robust and efficient model of autonomous HCV RNA replication currently available. It will be appreciated that it is important to distinguish between compounds that specifically interfere with HCV functions from those that exert cytotoxic or cytostatic effects in the HCV replicon model, and as a consequence cause a decrease in HCV RNA or linked reporter enzyme concentration. Assays are known in the field for the evaluation of cellular cytotoxicity based for example on the activity of mitochondrial enzymes using fluorogenic redox dyes such as resazurin. Furthermore, cellular counter screens exist for the evaluation of non-selective inhibition of linked reporter gene activity, such as firefly luciferase. Appropriate cell types can be equipped by stable transfection with a luciferase reporter gene whose expression is dependent on a constitutively active gene promoter, and such cells can be used as a counter-screen to eliminate non-selective inhibitors.
The compounds of formula (I) were examined for inhibitory activity in the HCV replicon. This cellular assay is based on a bicistronic expression construct, as described by Lohmann et al. (1999) Science vol. 285 pp. 110-113 with modifications described by Krieger et al. (2001) Journal of Virology 75: 4614-4624, in a multi-target screening strategy.
The assay utilized the stably transfected cell line Huh-7 luc/neo (hereafter referred to as Huh-Luc). This cell line harbors an RNA encoding a bicistronic expression construct comprising the wild type NS3-NS5B regions of HCV type 1b translated from an
Internal Ribosome Entry Site (IRES) from encephalomyocarditis virus (EMCV), preceded by a reporter portion (FfL-luciferase), and a selectable marker portion (neo^R, neomycine phosphotransferase). The construct is flanked by 5′ and 3′ NTRs (non-translated regions) from HCV type 1b. Continued culture of the replicon cells in the presence of G418 (neo^R) is dependent on the replication of the HCV RNA. The stably transfected replicon cells that express HCV RNA, which replicates autonomously and to high levels, encoding inter alia luciferase, were used for screening the antiviral compounds.
The replicon cells were plated in 384 well plates in the presence of the test and control compounds which were added in various concentrations. Following an incubation of three days, HCV replication was measured by assaying luciferase activity (using standard luciferase assay substrates and reagents and a Perkin Elmer ViewLux™ ultraHTS microplate imager). Replicon cells in the control cultures have high luciferase expression in the absence of any inhibitor. The inhibitory activity of the compound on luciferase activity was monitored on the Huh-Luc cells, enabling a dose-response curve for each test compound. EC50 values were then calculated, which represent the amount of compound required to decrease the level of detected luciferase activity by 50%, or more specifically, to reduce the ability of the genetically linked HCV replicon RNA to replicate.
Where a compound of formula (I) was tested more than once in the replicon assay, the average of all test results is given in this Table 1.

COC(=O)N[C@H](C(=O)N1CCC[C@H]1c1ncc(-c2ccc3cc(-c4ccc5c(=O)[nH]c([C@@H]6CCCN6C(=O)[C@@H](NC(=O)OC)C(C)C)nc5c4)ccc3c2)[nH]1)C(C)C [Compound 44]
A->B permeability (Papp × 10^−6 cm/sec) in the presence the P-gp inhibitor GF120918 [1]: 6.9 10^−6 cm/sec | EC50 ([2]; Hepatitis C virus, Huh-7, 72 h): 0.005 nM

COC(=O)N[C@H](C(=O)N1CCC[C@H]1c1ncc(-c2ccc3cc(-c4ccc5nc([C@@H]6CCCN6C(=O)[C@@H](NC(=O)OC)C(C)C)[nH]c(=O)c5c4)ccc3c2)[nH]1)C(C)C [Compound 35]
A->B permeability (Papp × 10^−6 cm/sec) in the presence the P-gp inhibitor GF120918 [1]: 5.0 10^−6 cm/sec | EC50 ([2]; Hepatitis C virus, Huh-7, 72 h): 0.64 nM

COC(=O)N[C@H](C(=O)N1CCCC1c1cc(=O)c2ccc(-c3ccc4cc(-c5cnc([C@@H]6CCCN6C(=O)[C@@H](NC(=O)OC)C(C)C)[nH]5)ccc4c3)cc2[nH]1)C(C)C (single isomer, unassigned) [Compound 13b]
A->B permeability (Papp × 10^−6 cm/sec) in the presence the P-gp inhibitor GF120918 [1]: 0.5 10^−6 cm/sec | EC50 ([2]; Hepatitis C virus, Huh-7, 72 h): 0.022 nM

COC(=O)N[C@H](C(=O)N1CCCCC1c1cc(=O)c2ccc(-c3ccc4cc(-c5cnc([C@@H]6CCCN6C(=O)[C@@H](NC(=O)OC)C(C)C)[nH]5)ccc4c3)cc2[nH]1)C(C)C (some centres unmarked) [Compound 76]
A->B permeability (Papp × 10^−6 cm/sec) in the presence the P-gp inhibitor GF120918 [1]: 3.1 10^−6 cm/sec | EC50 ([2]; Hepatitis C virus, Huh-7, 72 h): 0.034 nM

COC(=O)N[C@H](C(=O)N1CCC[C@H]1c1ncc(-c2ccc3cc(-c4ccc5c(=O)[nH]c([C@@H]6CC(C)(C)CN6C(=O)[C@@H](NC(=O)OC)C(C)C)nc5c4)ccc3c2)[nH]1)C(C)C [Compound 50]
A->B permeability (Papp × 10^−6 cm/sec) in the presence the P-gp inhibitor GF120918 [1]: 5.8 10^−6 cm/sec | EC50 ([2]; Hepatitis C virus, Huh-7, 72 h): 0.006 nM

COC(=O)N[C@H](C(=O)N1CCCC1c1[nH]c2cc(-c3ccc4cc(-c5cnc([C@@H]6CCCN6C(=O)[C@@H](NC(=O)OC)C(C)C)[nH]5)ccc4c3)ccc2c(=O)c1F)C(C)C (single isomer, unassigned) [Compound 110b]
A->B permeability (Papp × 10^−6 cm/sec) in the presence the P-gp inhibitor GF120918 [1]: 2.3 10^−6 cm/sec | EC50 [2]: 0.48 nM

COC(=O)N[C@H](C(=O)N1CCCC1c1[nH]c2cc(-c3ccc4cc(-c5cnc([C@@H]6CCCN6C(=O)[C@@H](NC(=O)OC)C(C)C)[nH]5)ccc4c3)ccc2c(=O)c1F)C(C)C (single isomer, unassigned) [Compound 110a]
A->B permeability (Papp × 10^−6 cm/sec) in the presence the P-gp inhibitor GF120918 [1]: 0.4 10^−6 cm/sec | EC50 [2]: 0.048 nM

COC(=O)N[C@H](C(=O)N1CCC[C@H]1C1=Nc2cc(-c3ccc4cc(-c5cnc([C@@H]6CCCN6C(=O)[C@@H](NC(=O)OC)C(C)C)[nH]5)ccc4c3)ccc2C(C)(C)N1)C(C)C [Compound 61]
A->B permeability (Papp × 10^−6 cm/sec) in the presence the P-gp inhibitor GF120918 [1]: 4.8 10^−6 cm/sec | EC50 ([2]; Hepatitis C virus, Huh-7, 72 h): 0.017 nM

COC(=O)N[C@H](C(=O)N1CCCC1c1[nH]c2cc(-c3ccc4cc(-c5cnc([C@@H]6CCCN6C(=O)[C@@H](NC(=O)OC)C(C)C)[nH]5)ccc4c3)ccc2c(=O)c1C)C(C)C (single isomer, unassigned) [Compound 102a]
A->B permeability (Papp × 10^−6 cm/sec) in the presence the P-gp inhibitor GF120918 [1]: <0.6 10^−6 cm/sec | EC50 ([2]; Hepatitis C virus, Huh-7, 72 h): 0.069 nM

COC(=O)N[C@H](C(=O)N1CCC[C@H]1c1ncc(-c2ccc3cc(-c4ccc5c(=O)[nH]c([C@@H]6CCCN6C(=O)[C@H](NC(=O)OC(C)(C)C)c6ccccc6)nc5c4)ccc3c2)[nH]1)C(C)C [Compound 44-1]
A->B permeability (Papp × 10^−6 cm/sec) in the presence the P-gp inhibitor GF120918 [1]: 2.7 10^−6 cm/sec | EC50 ([2]; Hepatitis C virus, Huh-7, 72 h): 8.1 nM

COC(=O)N[C@H](C(=O)N1CCC[C@H]1c1ncc(-c2ccc3cc(-c4ccc5c(=O)[nH]c([C@@H]6CCCN6C(=O)[C@H](NC(=O)OC)c6ccccc6)nc5c4)ccc3c2)[nH]1)C(C)C [Compound 44-2]
A->B permeability (Papp × 10^−6 cm/sec) in the presence the P-gp inhibitor GF120918 [1]: 5.5 10^−6 cm/sec | EC50 ([2]; Hepatitis C virus, Huh-7, 72 h): 0.084 nM

COC(=O)N[C@H](C(=O)N1CCC[C@H]1c1ncc(-c2ccc3cc(-c4ccc5c(c4)NC([C@@H]4CCCN4C(=O)[C@H](NC(=O)OC)c4ccccc4)=NS5(=O)=O)ccc3c2)[nH]1)C(C)C [Compound 87]
A->B permeability (Papp × 10^−6 cm/sec) in the presence the P-gp inhibitor GF120918 [1]: 1.0 10^−6 cm/sec | EC50 ([2]; Hepatitis C virus, Huh-7, 72 h): 0.008 nM

COC(=O)N[C@H](C(=O)N1CCC[C@H]1C1=Nc2cc(-c3ccc4cc(-c5cnc([C@@H]6CCCN6C(=O)[C@@H](NC(=O)OC)C(C)C)[nH]5)ccc4c3)ccc2C2(COC2)N1)C(C)C [Compound 70]
A->B permeability (Papp × 10^−6 cm/sec) in the presence the P-gp inhibitor GF120918 [1]: 7.8 10^−6 cm/sec | EC50 ([2]; Hepatitis C virus, Huh-7, 72 h): 0.009 nM
